Reference: patent US7718808B2, “Thiazole derivatives” (Kyowa Hakko Kirin Co., Ltd., priority 2003, dated 2010)

Row | Compound | melting point
1 | O=C(CCc1ccccc1)Nc1nc(-c2ccco2)c(C(=O)C2CCOCC2)s1 [Compound 527, N-[4-(2-Furyl)-5-(tetrahydropyran-4-ylcarbonyl)thiazol-2-yl]-3-phenylpropanamide] | 161 to 164 °C
2 | O=C(Nc1nc(-c2ccco2)c(C(=O)c2ccccn2)s1)c1ccno1 [Compound 242, N-[4-(2-Furyl)-5-(pyridin-2-ylcarbonyl)thiazol-2-yl]isoxazole-5-carboxamide] | 223 to 230 °C
3 | O=C(Nc1nc(-c2ccco2)c(C(=O)C2CCOCC2)s1)c1cccc(F)c1F [Compound 489, 2,3-Difluoro-N-[4-(2-furyl)-5-(tetrahydropyran-4-ylcarbonyl)thiazol-2-yl]benzamide] | 154 to 160 °C
4 | O=C(Nc1nc(-c2ccco2)c(C(=O)C2CCOCC2)s1)c1ccc2c(c1)OCO2 [Compound 496, N-[4-(2-Furyl)-5-(tetrahydropyran-4-ylcarbonyl)thiazol-2-yl]-1,3-benzodioxole-5-carboxamide] | 194 to 196 °C
5 | O=C(CNC12CC3CC(CC(C3)C1)C2)Nc1nc(-c2ccco2)c(C(=O)C2CCOCC2)s1 [Compound 577, N-[4-(2-Furyl)-5-(tetrahydropyran-4-ylcarbonyl)thiazol-2-yl]-2-(adamantan-1-ylamino)acetamide] | 168 to 170 °C
6 | CCn1cc(C(=O)Nc2nc(-c3ccco3)c(C(=O)C3CCOCC3)s2)cn1 [Compound 520, 1-Ethyl-N-[4-(2-furyl)-5-(tetrahydropyran-4-ylcarbonyl)thiazol-2-yl]pyrazole-4-carboxamide] | 170 to 174 °C
7 | Cc1cncc(C(=O)Nc2nc(-c3ccco3)c(C(=O)c3ccccn3)s2)c1 [Compound 223, N-[4-(2-Furyl)-5-(pyridine-2-ylcarbonyl)thiazol-2-yl]-5-methylpyridine-3-carboxamide] | 245 to 248 °C
8 | CC(C)C(=O)c1sc(NC(=O)c2ccncc2)nc1-c1ccco1 [Compound 393, N-[4-(2-Furyl)-5-isobutyrylthiazol-2-yl]pyridine-4-carboxamide] | 179 to 182 °C
9 | COc1cc(C(=O)c2sc(NC(=O)c3ccncc3)nc2-c2ccco2)ccn1 [Compound 336, N-[4-(2-Furyl)-5-(2-methoxypyridin-4-ylcarbonyl)thiazol-2-yl]pyridine-4-carboxamide] | 237 to 239 °C
10 | O=C(C=Cc1ccccc1)Nc1nc(-c2ccco2)c(C(=O)C2CCOCC2)s1 [Compound 528, N-[4-(2-Furyl)-5-(tetrahydropyran-4-ylcarbonyl)thiazol-2-yl]-3-phenylacrylamide] | 253 to 256 °C
11 | CC(C)(O)C(=O)Nc1nc(-c2ccco2)c(C(=O)c2ccccc2)s1 [Compound 137, N-[5-Benzoyl-4-(2-furyl)thiazol-2-yl]-2-hydroxy-2-methylpropanamide] | 153 to 154 °C
12 | COc1ccc(C(=O)Nc2nc(-c3ccco3)c(C(=O)C3CCOCC3)s2)cc1OC [Compound 487, N-[4-(2-Furyl)-5-(tetrahydropyran-4-ylcarbonyl)thiazol-2-yl]-3,4-dimethoxybenzamide] | 289 to 292 °C
13 | N#Cc1ccc(C(=O)Nc2nc(-c3ccco3)c(C(=O)C3CCOCC3)s2)cc1 [Compound 474, 4-Cyano-N-[4-(2-furyl)-5-(tetrahydropyran-4-ylcarbonyl)thiazol-2-yl]benzamide] | 231 to 234 °C
14 | O=C(Nc1nc(-c2ccco2)c(C(=O)C2CCC2)s1)c1ccco1 [Compound 425, N-[5-(Cyclobutylcarbonyl)-4-(2-furyl)thiazol-2-yl]furan-2-carboxamide] | 188 to 192 °C
15 | COc1cccc(C(=O)c2sc(NC(=O)c3ccncc3)nc2-c2ccco2)n1 [Compound 283, N-[4-(2-Furyl)-5-(6-methoxypyridin-2-ylcarbonyl)thiazol-2-yl]pyridine-4-carboxamide] | 247 to 250 °C
16 | Cc1ccc(C(=O)c2sc(NC(=O)c3ccco3)nc2-c2ccco2)cn1 [Compound 315, N-[4-(2-Furyl)-5-(2-methylpyridin-5-ylcarbonyl)thiazol-2-yl]furan-2-carboxamide] | 197 to 209 °C
17 | O=C(CN1CCCCC1)Nc1nc(-c2ccco2)c(C(=O)C2CCOCC2)s1 [Compound 542, N-[4-(2-Furyl)-5-(tetrahydropyran-4-ylcarbonyl)thiazol-2-yl]-2-piperidinoacetamide] | 146 to 147 °C
18 | CCn1ccc(C(=O)c2sc(NC(=O)c3ccncc3)nc2-c2ccco2)c1 [Compound 355, N-[5-(1-Ethylpyrrol-3-ylcarbonyl)-4-(2-furyl)thiazol-2-yl]pyridine-4-carboxamide] | 127 to 134 °C
19 | O=C(c1ccccc1)c1sc(NC(=O)C2(O)CC2)nc1-c1ccco1 [Compound 138, N-[5-Benzoyl-4-(2-furyl)thiazol-2-yl]-1-hydroxycyclopropanecarboxamide] | 202 to 205 °C
20 | Cn1ccc(C(=O)c2sc(NC(=O)c3ccncc3)nc2-c2ccco2)cc1=O [Compound 367, N-[4-(2-Furyl)-5-(1-methyl-2-oxo-1,2-dihydropyridin-4-ylcarbonyl)thiazol-2-yl]pyridine-4-carboxamide] | 243 to 255 °C (dec.)

Row | Compound | melting point
21 | COc1ccc(OC)c(C(=O)Nc2nc(-c3ccco3)c(C(=O)C3CCOCC3)s2)c1 [Compound 485, N-[4-(2-Furyl)-5-(tetrahydropyran-4-ylcarbonyl)thiazol-2-yl]-2,5-dimethoxybenzamide] | 107 to 110 °C
22 | CN(C)Cc1ccc(C(=O)Nc2nc(-c3ccco3)c(C(=O)C3CCOCC3)s2)cc1 [Compound 479, 4-(Dimethylaminomethyl)-N-[4-(2-furyl)-5-(tetrahydropyran-4-ylcarbonyl)thiazol-2-yl]benzamide] | 109 to 112 °C
23 | O=C(CN1CCN(c2ncccn2)CC1)Nc1nc(-c2ccco2)c(C(=O)c2ccccn2)s1 [Compound 278, N-[4-(2-Furyl)-5-(pyridin-2-ylcarbonyl)thiazol-2-yl]-2-[4-(2-pyrimidinyl)piperazin-1-yl]acetamide] | 199 to 200 °C
24 | Cc1cncc(C(=O)Nc2nc(-c3ccoc3)c(C(=O)C3CCOCC3)s2)c1 [Compound 613, N-[4-(3-Furyl)-5-(tetrahydropyran-4-ylcarbonyl)thiazol-2-yl]-5-methylpyridine-3-carboxamide] | 244 to 246 °C
25 | CN1CCN(CC(=O)Nc2nc(-c3ccco3)c(C(=O)c3ccccn3)s2)CC1=O.Cl | 170 to 188 °C
26 | O=C(c1sc(NC(=O)N2CCOCC2)nc1-c1ccco1)C1CCCC1 [Compound 435, N-[5-(Cyclopentylcarbonyl)-4-(2-furyl)thiazol-2-yl]-morpholine-4-carboxamide] | 108 to 110 °C
27 | O=C(CN1CCOCC1)Nc1nc(-c2ccco2)c(C(=O)c2ccccn2)s1 [Compound 264, N-[4-(2-Furyl)-5-(pyridin-2-ylcarbonyl)thiazol-2-yl]morpholinoacetamide] | 170 to 171 °C
28 | O=C(Nc1nc(-c2ccco2)c(C(=O)C2CCOCC2)s1)c1cccc(F)c1 [Compound 467, 3-Fluoro-N-[4-(2-furyl)-5-(tetrahydropyran-4-ylcarbonyl)thiazol-2-yl]benzamide] | 229 to 231 °C
29 | Cc1ccc(C(=O)Nc2nc(-c3ccco3)c(C(=O)C3CCOCC3)s2)cc1 [Compound 460, N-[4-(2-Furyl)-5-(tetrahydropyran-4-ylcarbonyl)thiazol-2-yl]-4-methylbenzamide] | 190 to 192 °C
30 | O=C(Nc1nc(-c2ccco2)c(C(=O)C2CCOCC2)s1)c1ccc(CN2CCOCC2)cc1 [Compound 482, N-[4-(2-Furyl)-5-(tetrahydropyran-4-ylcarbonyl)thiazol-2-yl]-4-(morpholinomethyl)benzamide] | 92 to 96 °C
31 | COc1ccc(C(=O)c2sc(NC(=O)c3ccncc3)nc2-c2ccco2)cn1 [Compound 319, N-[4-(2-Furyl)-5-(2-methoxypyridin-5-ylcarbonyl)thiazol-2-yl]pyridine-4-carboxamide] | 246 to 257 °C (dec.)
32 | COCC(=O)c1sc(NC(=O)c2ccc(Cl)nc2)nc1-c1ccco1 [Compound 404, 2-Chloro-N-[4-(2-furyl)-5-(methoxyacetyl)thiazol-2-yl]pyridine-5-carboxamide] | 174 to 183 °C
33 | Cc1ccccc1C(=O)Nc1nc(-c2ccco2)c(C(=O)C2CCOCC2)s1 [Compound 458, N-[4-(2-Furyl)-5-(tetrahydropyran-4-ylcarbonyl)thiazol-2-yl]-2-methylbenzamide] | 204 to 206 °C
34 | COC1CCC(C(=O)c2sc(NC(=O)c3ccncc3)nc2-c2ccco2)CC1 (stereo not shown) [Compound 442, N-[4-(2-Furyl)-5-(4-methoxycyclohexylcarbonyl)thiazol-2-yl]pyridine-4-carboxamide] | 180 to 187 °C
35 | CCOC(=O)Nc1nc(-c2ccco2)c(C(=O)C2CCOCC2)s1 [Compound 581, Ethyl N-[4-(2-furyl)-5-(tetrahydropyran-4-ylcarbonyl)thiazol-2-yl]carbamate] | 152 to 153 °C
36 | Cn1ccc(-c2sc(NC(=O)c3ccncc3)nc2-c2ccco2)cc1=O [Compound 123, N-[4-(2-Furyl)-5-(1-methyl-2-oxo-1,2-dihydropyridine-4-yl)thiazol-2-yl]pyridine-4-carboxamide] | 280 to 282 °C
37 | O=C(Nc1nc(-c2ccco2)c(C(=O)c2ccnc(N3CCOCC3)c2)s1)c1ccncc1 [Compound 339, N-[4-(2-Furyl)-5-(2-morpholinopyridin-4-ylcarbonyl)thiazol-2-yl]pyridine-4-carboxamide] | 270 to 273 °C
38 | CN1CCCN(CC(=O)Nc2nc(-c3ccco3)c(C(=O)C3CCOCC3)s2)CC1 [Compound 576, N-[4-(2-Furyl)-5-(tetrahydropyran-4-ylcarbonyl)thiazol-2-yl]-2-(4-methyl-1,4-diazepan-1-yl)acetamide] | 94 to 96 °C
39 | O=C(c1sc(NC(=O)C2CCCO2)nc1-c1ccco1)C1CCOCC1 (stereo not shown) [Compound 523, N-[4-(2-Furyl)-5-(tetrahydropyran-4-ylcarbonyl)thiazol-2-yl]tetrahydrofuran-2-carboxamide] | 115 to 117 °C
40 | Cc1ccc(C(=O)c2sc(NC(=O)c3ccc(C#N)cc3)nc2-c2ccco2)cn1 [Compound 314, 4-Cyano-N-[4-(2-furyl)-5-(2-methylpyridin-5-ylcarbonyl)thiazol-2-yl]benzamide] | 261 to 265 °C
